The source of these data is ChEMBL document CHEMBL1147381, “Two new cytotoxic chalcones from Calythropsis aurea” (J Nat Prod, 1993).

Experiment [1] in a line: Cytotoxicity against human NCI60 cells after 2 days by XTT assay. It counts as functional. As to conditions: NCI60, 48 h.
Experiment [2] has as its system L1210. Briefly: Cytotoxicity against mouse L1210 cells after 24 hrs. The format is functional, cell-based. As to conditions: L1210, 24 h.

pIC50: −log10 of the molar value.

For orientation: GI50 means the concentration giving 50% growth inhibition. Read a high GI50 as less potent growth inhibition. A word on the TGI: it is the concentration at which net growth stops. A higher TGI goes with lower sensitivity of the cells. One may read the pIC50 as the negative decadic logarithm of the IC50, by convention in mol/L. In experiment [1], `COc1ccc(C(=O)/C=C/c2ccc(O)c(O)c2)c(O)c1` [CALYTHROPSIN] gave a GI50 of 0.66 µM and a total growth inhibition concentration (TGI) of 19.7 µM. Besides, the CC50 in experiment [1] (read-out: LC50 (the source's name)) was over 50 µM. Also, the negative logarithm of the IC50 (pIC50) in experiment [2] was 5.15.
